1 molecule from US7514450B2, “Azabicyclic aryl derivatives” (NeuroSearch A/S, priority 2004, dated 2009) can be followed below.

The IC50 is the concentration at which inhibition is half-maximal. High values mean a need for much substance, low ones inhibition by little substance.

Counter-ions that a name gives are not always drawn.

In this experiment the target is T1, α7-subtype of nicotinic receptors (Rattus norvegicus, UniProt Q05941).
T1 construct: Cerebral cortices from male Wistar rats (150-250 g) are homogenised; from tissue; host or cells: rat cerebral cortex membrane homogenate
The experiment in a line: In vitro inhibition of 3H-α-bungarotoxine binding in rat brain. As to conditions: rat cerebral cortex homogenate; 3H-α-bungarotoxine 2 nM; 2 hours at 37° C.

T1 sequence (Q05941 23-502): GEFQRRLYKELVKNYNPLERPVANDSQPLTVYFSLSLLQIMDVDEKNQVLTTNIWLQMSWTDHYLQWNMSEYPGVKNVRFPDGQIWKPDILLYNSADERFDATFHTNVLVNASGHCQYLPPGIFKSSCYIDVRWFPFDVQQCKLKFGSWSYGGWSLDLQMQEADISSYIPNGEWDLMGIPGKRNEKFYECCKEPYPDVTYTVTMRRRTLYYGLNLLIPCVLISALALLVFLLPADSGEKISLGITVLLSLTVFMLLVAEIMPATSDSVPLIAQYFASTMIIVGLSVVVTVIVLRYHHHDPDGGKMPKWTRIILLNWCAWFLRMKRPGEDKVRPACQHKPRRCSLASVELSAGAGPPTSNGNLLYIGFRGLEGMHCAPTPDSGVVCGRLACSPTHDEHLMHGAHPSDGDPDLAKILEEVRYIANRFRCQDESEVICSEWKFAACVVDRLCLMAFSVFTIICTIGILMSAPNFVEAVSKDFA

`O=C(Nc1ccc(-c2ccc(C(=O)NC3CN4CCC3CC4)o2)cc1)c1ccccc1` (racemic) [Compound 1, (±)5-(4-Benzoylamino-phenyl)-furan-2-carboxylic acid(1-aza-bicyclo[2.2.2]oct-3-yl)-amide hydrochloric acid salt] showed an IC50 of 80 nM.
